Source: patent US7118895B2, “Process for producing aglycon by using diglycosidase and flavor-improved food containing the aglycon and converting agent to be used in the process” (Amano Enzyme Inc., priority 2000, dated 2006)

What was measured:
Crude diglycosidase = assay: Examination of substrate concentration in the conversion into isoflavone aglycons by diglycosidase using soybean materials; type: biochemical, Penicillium multicolor IAM7153; settings: for Decomposition efficiency: ratio of each glycoside/aglycon within its isoflavone family: roasted soy flour;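 as to Decomposition efficiency: ratio of each glycoside/aglycon within its isoflavone family: percent of the isoflavone family total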
In short: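 Reaction at 55° C, shaken, pH 4.0 (20 mM acetate), using crude diglycosidase from a 1.88 AU/mL enzyme solution on soy flour, soymilk, defatted soybean or soy protein concentrate at 2, 5, 10, 20 or 30% (w/v). Isoflavone aglycons quantified by HPLC of ethanol extracts at 0, 1, 3, 6 h.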

[1] = tested on: β-Glucosidase derived from almond; assay: Reactivity toward various isoflavone glycosides (HPLC); type: biochemical; design: unit not given here; settings: 55 °C, pH 4.0
In short: (§1)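 Aglycone liberation was measured by reversed-phase HPLC (260 nm, calibration-curve quantitation) after ethanol extraction at 0, 1, 3 and 6 h. Reactions ran at 55° C, pH 4.0 (20 mM acetate), with each glycoside (from 2 mM methanol stock) and 0.75 AU/mL enzyme solution.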

[2] = tested on: β-Xylosidase derived from pectinase G; assay: as above; type: biochemical; design: unit not given here; settings: 55 °C, pH 4.0
In short: as §1

[3] = substrate concentration 2%, heat treatment of enzyme no, reaction time 0 h
[4] = substrate concentration 2%, heat treatment of enzyme no, reaction time 1 h
[5] = substrate concentration 2%, heat treatment of enzyme no, reaction time 3 h
[6] = substrate concentration 2%, heat treatment of enzyme no, reaction time 6 h
[7] = substrate concentration 2%, heat treatment of enzyme yes, reaction time 6 h
[8] = substrate concentration 5%, heat treatment of enzyme no, reaction time 0 h
[9] = substrate concentration 5%, heat treatment of enzyme no, reaction time 1 h
[10] = substrate concentration 5%, heat treatment of enzyme no, reaction time 3 h
[11] = substrate concentration 5%, heat treatment of enzyme no, reaction time 6 h
[12] = substrate concentration 5%, heat treatment of enzyme yes, reaction time 6 h
[13] = substrate concentration 10%, heat treatment of enzyme no, reaction time 0 h
[14] = substrate concentration 10%, heat treatment of enzyme no, reaction time 1 h
[15] = substrate concentration 10%, heat treatment of enzyme no, reaction time 3 h
[16] = substrate concentration 10%, heat treatment of enzyme no, reaction time 6 h
[17] = substrate concentration 10%, heat treatment of enzyme yes, reaction time 6 h

CC(=O)OC[C@H]1O[C@@H](Oc2ccc3c(=O)c(-c4ccc(O)cc4)coc3c2)[C@H](O)[C@@H](O)[C@@H]1O [acetyldaidzin, 6″-O-acetyldaidzin]
Decomposition efficiency: ratio of each glycoside/aglycon within its isoflavone family (Crude diglycosidase; [3]): 47.6% | Decomposition efficiency: ratio of each glycoside/aglycon within its isoflavone family (Crude diglycosidase; [4]): 9.2% | Decomposition efficiency: ratio of each glycoside/aglycon within its isoflavone family (Crude diglycosidase; [5]): not detected | Decomposition efficiency: ratio of each glycoside/aglycon within its isoflavone family (Crude diglycosidase; [6]): not detected | Decomposition efficiency: ratio of each glycoside/aglycon within its isoflavone family (Crude diglycosidase; [7]): 47.2% | Decomposition efficiency: ratio of each glycoside/aglycon within its isoflavone family (Crude diglycosidase; [8]): 46.1% | Decomposition efficiency: ratio of each glycoside/aglycon within its isoflavone family (Crude diglycosidase; [9]): 20.9% | Decomposition efficiency: ratio of each glycoside/aglycon within its isoflavone family (Crude diglycosidase; [10]): 12.5% | Decomposition efficiency: ratio of each glycoside/aglycon within its isoflavone family (Crude diglycosidase; [11]): 6.8% | Decomposition efficiency: ratio of each glycoside/aglycon within its isoflavone family (Crude diglycosidase; [12]): 46.1% | Decomposition efficiency: ratio of each glycoside/aglycon within its isoflavone family (Crude diglycosidase; [13]): 38.5% | Decomposition efficiency: ratio of each glycoside/aglycon within its isoflavone family (Crude diglycosidase; [14]): 30.5% | Decomposition efficiency: ratio of each glycoside/aglycon within its isoflavone family (Crude diglycosidase; [15]): 21.5% | Decomposition efficiency: ratio of each glycoside/aglycon within its isoflavone family (Crude diglycosidase; [16]): 14.9% | Decomposition efficiency: ratio of each glycoside/aglycon within its isoflavone family (Crude diglycosidase; [17]): 47.7% | Decomposition efficiency: ratio of each glycoside/aglycon within its isoflavone family (Crude diglycosidase; substrate concentration 20%, heat treatment of enzyme no, reaction time 0 h): 46.1% | Decomposition efficiency: ratio of each glycoside/aglycon within its isoflavone family (Crude diglycosidase; substrate concentration 20%, heat treatment of enzyme no, reaction time 1 h): 40.7% | Decomposition efficiency: ratio of each glycoside/aglycon within its isoflavone family (Crude diglycosidase; substrate concentration 20%, heat treatment of enzyme no, reaction time 3 h): 32.6% | Decomposition efficiency: ratio of each glycoside/aglycon within its isoflavone family (Crude diglycosidase; substrate concentration 20%, heat treatment of enzyme no, reaction time 6 h): 25.1% | Decomposition efficiency: ratio of each glycoside/aglycon within its isoflavone family (Crude diglycosidase; substrate concentration 20%, heat treatment of enzyme yes, reaction time 6 h): 47.2% | Decomposition efficiency: ratio of each glycoside/aglycon within its isoflavone family (Crude diglycosidase; substrate concentration 30%, heat treatment of enzyme no, reaction time 0 h): 47.6% | Decomposition efficiency: ratio of each glycoside/aglycon within its isoflavone family (Crude diglycosidase; substrate concentration 30%, heat treatment of enzyme no, reaction time 1 h): 46.4% | Decomposition efficiency: ratio of each glycoside/aglycon within its isoflavone family (Crude diglycosidase; substrate concentration 30%, heat treatment of enzyme no, reaction time 3 h): 42.6% | Decomposition efficiency: ratio of each glycoside/aglycon within its isoflavone family (Crude diglycosidase; substrate concentration 30%, heat treatment of enzyme no, reaction time 6 h): 34.3% | Decomposition efficiency: ratio of each glycoside/aglycon within its isoflavone family (Crude diglycosidase; substrate concentration 30%, heat treatment of enzyme yes, reaction time 6 h): 47.4% | Decomposition efficiency of daidzin family in defatted soybean (Crude diglycosidase; [3]): not detected | Decomposition efficiency of daidzin family in defatted soybean (Crude diglycosidase; [4]): not detected | Decomposition efficiency of daidzin family in defatted soybean (Crude diglycosidase; [5]): not detected | Decomposition efficiency of daidzin family in defatted soybean (Crude diglycosidase; [6]): not detected | Decomposition efficiency of daidzin family in defatted soybean (Crude diglycosidase; [7]): not detected | Decomposition efficiency of daidzin family in defatted soybean (Crude diglycosidase; [8]): not detected | Decomposition efficiency of daidzin family in defatted soybean (Crude diglycosidase; [9]): not detected | Decomposition efficiency of daidzin family in defatted soybean (Crude diglycosidase; [10]): not detected | Decomposition efficiency of daidzin family in defatted soybean (Crude diglycosidase; [11]): not detected | Decomposition efficiency of daidzin family in defatted soybean (Crude diglycosidase; [12]): not detected | Decomposition efficiency of daidzin family in defatted soybean (Crude diglycosidase; [13]): not detected | Decomposition efficiency of daidzin family in defatted soybean (Crude diglycosidase; [14]): not detected | Decomposition efficiency of daidzin family in defatted soybean (Crude diglycosidase; [15]): not detected | Decomposition efficiency of daidzin family in defatted soybean (Crude diglycosidase; [16]): not detected | Decomposition efficiency of daidzin family in defatted soybean (Crude diglycosidase; [17]): not detected | aglycon ([1]; Reaction time 0 h): 0.2 | glucoside ([1]; Reaction time 0 h): 99.8 | aglycon ([1]; Reaction time 1 h): 0.5 | glucoside ([1]; Reaction time 1 h): 99.5 | aglycon ([1]; Reaction time 3 h): 0.6 | glucoside ([1]; Reaction time 3 h): 99.4 | aglycon ([1]; Reaction time 6 h): 0.6 | glucoside ([1]; Reaction time 6 h): 99.4 | aglycon ([2]; Reaction time 0 h): 0 | glucoside ([2]; Reaction time 0 h): 100 | aglycon ([2]; Reaction time 1 h): 9.7 | glucoside ([2]; Reaction time 1 h): 90.3 | aglycon ([2]; Reaction time 3 h): 1.3 | glucoside ([2]; Reaction time 3 h): 98.7 | aglycon ([2]; Reaction time 6 h): 2.3 | glucoside ([2]; Reaction time 6 h): 97.7
